Laboratory results as given in patent publication US20180325909A1, “COMBINATION TREATMENT OF SPECIFIC FORMS OF EPILEPSY” (ZOGENIX INTERNATIONAL LIMITED, priority 2015, published 2018).
“Also recorded” adds a separate entry of the source. Read-outs that look alike come from different tables or passages of the source.

Experiments:
[1] = tested on: Dravet syndrome patients; details: Chiron et al. 2011; cited from earlier work
[2] = tested on: scn1Lab−/− larvae; test: Fenfluramine combined with 5-HT subtype antagonists, locomotor activity of scn1Lab-/- larvae; type: in vivo, Danio rerio; details: antagonist plus fenfluramine
Description: (§1) Scn1Lab−/− mutants and WT scn1Lab+/+ larvae were arrayed in the same plate and treated at 6 days post fertilization (dpf) with fenfluramine (25 μM), functional analogs (at their MTC) or VHC in individual wells of a 96-well plate. After incubation at 28° C. on a 14/10 hour light/dark cycle and 30-min chamber habituation 6 and 7 dpf larvae were tracked for locomotor activity for 10 min (100-second integration interval) under dark conditions. An incubation time of 1.5 hours is further referred as short treatment (6 dpf). Furthermore these larvae were analyzed after more than 22 hours incubation (7 dpf), i.e. long treatment. The total locomotor activity was quantified using the parameter lardist and plotted in cm. Data were pooled together from two (5-HT1B-, 5-HT1F-, 5-HT3-, 5-HT4-, 5-HT5A-, 5-HT6-agonist and all antagonists except 5-HT1B- and 5-HT7-antagonists) or three (fenfluramine, 5-HT1A-, 5-HT1D-, 5-HT1E-, 5-HT2A-, 5-HT2B-, and 5-HT2C-agonist) independent experiments with at least 9 larvae per treatment condition.
No highly specific 5-HT1E-antagonist is currently available so it was impossible to explore this 5-HTsubtype receptor in the current assay (Leung, 2009).

[3] = tested on: homozygous scn1Lab−/− mutants; type: in vivo, Danio rerio; details: for locomotor-reducing activity of functional analogs: at MTC, in most cases observed after short and long treatment; for activity in the Zebrafish model of epilepsy: following both acute and chronic application
Description: (§2) Zebrafish embryos (Danio rerio) heterozygous for the scn1Lab mutation (scn1Lab+/−) were backcrossed with Tupfel longfin wildtype (WT scn1Lab+/+). Adult zebrafish were housed at 28.0° C., on a 14/10 hour light/dark cycle under standard aquaculture conditions. Fertilized eggs were collected via natural spawning. Anaesthetized fish (tricaine 0.02%) were fin-clipped and genotyped by PCR. After genotyping, samples were purified (MinElute PCR Purification Kit) and sequenced by LGC Genomics. Age-matched Tupfel longfin wildtype larvae were used as control group (WT scn1Lab+/+).
(§3) To evaluate the locomotor activity of homozygous scn1Lab−/− mutants and control WT scn1Lab+/+, zebrafish larvae were placed in a 96-well plate in 100 μL of embryo medium from 4 to 8 dpf. Each day the larvae were tracked in an automated tracking device (ZebraBox™ apparatus; Viewpoint, Lyon, France) for 10 min after 30 min habituation (100-second integration interval). All recordings were performed at the same time during daytime period. The total distance in large movements was recorded and quantified using ZebraLab™ software (Viewpoint, Lyon, France). Data were pooled together from at least three independent experiments with at least 24 larvae per condition.
as §1

[4] = tested on: WT scn1Lab+/+ larvae; test: Locomotor activity of age-matched wildtype zebrafish larvae; type: in vivo, Danio rerio; details: 'with exception of' means the compound did decrease wildtype activity
Description: as §2, §3
as §1, with “Data were pooled together from two (5-HT1B-, 5-HT1F-, 5-HT3-, 5-HT4-, 5-HT5A-, 5-HT6-agonist and all antagonists except 5-HT1B- and 5-HT7-antagonists) or three (fenfluramine, 5-HT1A-, 5-HT1D-, 5-HT1E-, 5-HT2A-, 5-HT2B-, and 5-HT2C-agonist) independent experiments with at least 9 larvae per treatment condition.” left out

[5] = tested on: homozygous scn1Lab−/− mutants; type: in vivo, Danio rerio; details: for reduction of epileptiform activity (in words, compared with fenfluramine): long treatment at MTC (5-HT2B-agonist 3.125 μM), at least frequency and mean cumulative duration
Description: Epileptiform activity was measured by open-field recordings in the zebrafish larval forebrain at 7 dpf. Homozygous scn1Lab−/− mutants and control WT scn1Lab+/+ were embedded in 2% low-melting-point agarose (Invitrogen) to position a glass electrode into the forebrain. […] Single recordings were performed for 10 min. […] Spontaneous epileptiform events were taken into account when the amplitude exceeded three times the background noise and lasted longer than 50 milliseconds (ms).
Epileptiform activity was measured by open-field recordings in the zebrafish larval forebrain at 7 dpf, as described above. […] Recordings of 7 dpf larvae, from at least 8 scn1Lab−/− mutant larvae were taken per experimental condition. […] Electrographic recordings were quantified for the different treatment conditions.

[6] = molecular target: T1, 5-HT2C receptor (Homo sapiens, UniProt P28335); details: cited from earlier work
T1 sequence (P28335 33-458): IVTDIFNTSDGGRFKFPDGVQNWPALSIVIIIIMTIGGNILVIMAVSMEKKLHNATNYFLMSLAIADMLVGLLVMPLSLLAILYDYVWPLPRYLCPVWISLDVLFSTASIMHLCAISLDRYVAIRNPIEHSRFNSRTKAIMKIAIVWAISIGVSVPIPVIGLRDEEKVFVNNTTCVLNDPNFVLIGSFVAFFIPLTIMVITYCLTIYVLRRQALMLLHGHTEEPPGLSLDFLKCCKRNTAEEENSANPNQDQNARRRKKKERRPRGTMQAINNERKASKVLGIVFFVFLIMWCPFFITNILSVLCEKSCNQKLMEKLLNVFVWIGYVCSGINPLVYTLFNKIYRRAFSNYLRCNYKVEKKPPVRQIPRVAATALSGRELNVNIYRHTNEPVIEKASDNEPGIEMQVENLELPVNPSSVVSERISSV

[7] = tested on: Dravet syndrome patients; details: long term treatment with fenfluramine 0.12-0.90 mg/kg/day; Ceulemans et al. 2012; cited from earlier work
[8] = long treatment, fenfluramine 25 μM, 7 dpf

Question: For `NC(=O)N1c2ccccc2C=Cc2ccccc21` [carbamazepine], which “patients with worsening of symptoms” value [1] is on record?
Answer: ~60%

Question: Which “counteraction of the fenfluramine-elicited decrease in locomotor activity, long treatment” value ([2]; long treatment, p<0.05) does the source give for `O=C(c1ccc(F)cc1)C1CCN(CCn2c(=O)[nH]c3ccccc3c2=O)CC1` [5-HT2A-antagonist, ketaserine] here?
Answer: not after a long treatment

Question: What about the “effect of antagonist on the fenfluramine-elicited decrease in large movements” value ([2]; treatment time not stated) of the same molecule?
Answer: not seen

Question: For `COc1ccc(CNC(=O)/C=C/c2ccc3[nH]cc(CCN(C)C)c3c2)cc1` [5-HT1D-agonist, 3-[3-(2-Dimethylaminoethyl)-1H-indol-5-yl]-N-(4-methoxybenzyl)acrylamide], which “locomotor-reducing activity of functional analogs” value [3] is on record?
Answer: locomotor-reducing activity

Question: What about the “activity in the Zebrafish model of epilepsy” value (“activity … of epilepsy” below) [3] of the same molecule?
Answer: high levels of activity

Question: And the “locomotor activity in wildtype larvae” value [4]?
Answer: did not decrease the locomotor activity

Question: What about the “reduction of epileptiform activity (in words, compared with fenfluramine)” value (from here on “reduction of epileptiform activity”) ([5]; 7 dpf) of the same molecule?
Answer: comparable effects

Question: For `CN1C[C@H](C(=O)N[C@]2(C)O[C@@]3(O)[C@@H]4CCCN4C(=O)[C@H](Cc4ccccc4)N3C2=O)C=C2c3cccc4[nH]cc(c34)C[C@H]21` [ergotamine, (6aR,9R)—N-((2R,5S,10aS,10bS)-5-benzyl-10b-hydroxy-2-methyl-3,6-dioxooctahydro-2H-oxazolo[3,2-a]pyrrolo[2,1-c]pyrazin-2-yl)-7-methyl-4,6,6a,7,8,9-hexahydroindolo[4,3-fg] quinoline-9-carboxamide], which “locomotor-reducing activity of functional analogs” value [3] is on record?
Answer: interesting activity

Question: And the “locomotor-reducing activity of functional analogs” value ([3]; listed as 5-HT5A-agonist)?
Answer: locomotor-reducing activity

Question: What about the “activity … of epilepsy” value [3] of the same molecule?
Answer: high levels of activity

Question: And the “locomotor activity in wildtype larvae” value [4]?
Answer: did not decrease the locomotor activity

Question: Which results are given for `O=C1Nc2ccc(Cl)cc2[C@@](C#CC2CC2)(C(F)(F)F)O1` [efavirenz, (4S)-6-chloro-4-(2-cyclopropylethynyl)-4-(trifluoromethyl)-1H-3,1-benzoxazin-2-one]?
Answer: inhibition of locomotor activity in mutant fish embryos (Example 2) ([3]; tested at MTC): potent inhibitors; inhibition of epileptiform activity in mutant fish embryos (Example 2) ([5]; tested at MTC): potent inhibitors

Question: For `C[C@H]1CNCCc2ccc(Cl)cc21.Cl` [lorcaserin, (1R)-8-chloro-1-methyl-2,3,4,5-tetrahydro-1H-3-benzazepine], which “locomotor-reducing activity of functional analogs” value [3] is on record?
Answer: locomotor-reducing activity

Question: And the “activity … of epilepsy” value [3]?
Answer: high levels of activity

Question: And the “affinity for the 5-HT2C receptor vs. the 5-HT2B” value [6]?
Answer: 100 ×

Question: What about the “reduction of epileptiform activity” value ([5]; 7 dpf) of the same molecule?
Answer: comparable effects

Question: With `Nc1nnc(-c2cccc(Cl)c2Cl)c(N)n1` [lamotrigine] as the molecule, how does the “patients with worsening of symptoms” value [1] read?
Answer: up to 80%

Question: With `CN1CCC(c2c[nH]c3ccc(O)cc23)CC1` [5-HT1E-agonist, 1H-Indol-5-ol, 3-(1-methyl-4-piperidinyl)-] as the molecule, how does the “locomotor-reducing activity of functional analogs” value [3] read?
Answer: locomotor-reducing activity

Question: And the “locomotor activity in wildtype larvae” value [4]?
Answer: did not decrease the locomotor activity

Question: And the “reduction of epileptiform activity” value ([5]; 7 dpf)?
Answer: not able to reduce epileptiform activity

Question: Which results are given for `Cc1nn(C)c(C)c1-c1cccc2c1CC[C@H](N(C)C)C2` [5-HT7-agonist, (2S)-(+)-5-(1,3,5-Trimethylpyrazol-4-yl)-2-(dimethylamino)tetralin]?
Answer: locomotor-reducing activity of functional analogs [3]: locomotor-reducing activity; activity in the Zebrafish model of epilepsy [3]: high levels of activity

Question: Which results are given for `CCNC(C)Cc1cccc(C(F)(F)F)c1` (centres unmarked) [fenfluramine]?
Answer: activity in the Zebrafish model of epilepsy [3]: high levels of activity; locomotor activity after long treatment ([3]; long treatment (22 h), fenfluramine 25 μM, 7 dpf, p<0.0001): lowers locomotor activity; also recorded: significantly decreased; patients seizure-free [7]: 70%; reduction of epileptiform activity (in words, compared with fenfluramine) ([5]; 7 dpf): anti-epileptiform activity; frequency of epileptiform events [5, 8]: 1.7±0.4046 events/10-min recording; mean cumulative duration of epileptiform events [5, 8]: 200.8±50.38 ms/10-min recording; mean duration of epileptiform events [5, 8]: 85.11±18.28 ms/10-min recording

Question: With `C=CC(N)CCC(=O)O` (centres unmarked) [vigabatrin] as the molecule, how does the “patients with worsening of symptoms” value [1] read?
Answer: ~60%

Question: With `CC(N)Cc1c[nH]c2ccc(OCc3cccs3)cc12` (centres unmarked) [5-HT2B agonist] as the molecule, how does the “activity … of epilepsy” value [3] read?
Answer: did not show any activity
